pEC50: −log10 of the molar value. Like-named read-outs stand apart in the source and are kept apart here.
What was measured:
GABAA1 (α1β2γ2) receptor = biological target: T1, GABAA1 (α1β2γ2) receptor (Homo sapiens, UniProt P14867+P47870); assay: Patch-clamp electrophysiology on recombinant GABAA1 receptor in HEK293 cells, with 3 μM GABA; format: cell-based; conditions: for Emax at 0.1 µM / Emax at 1 µM / Emax: HEK293; for Emax at 0.1 µM: 0.1 μM compound together with 3 μmol GABA; for Emax at 0.1 µM / Emax at 1 µM: read-out: potency: ratio of the peak current on the GABAA1 receptor to the peak current in 100 μmol GABA; for Emax at 1 µM: 1 μM compound together with 3 μmol GABA; for Emax / pEC50: together with 3 μmol GABA; for Emax: relative to peak current in 100 μmol GABA
T1 construct: expressed in transfected cells
Method: (§1) The present invention applies the two subunits of the recombinant GABAA receptor: α1β2γ2 and α4β3δ to evaluate the potency of the exemplary compounds in vitro by patch-clamp electrophysiology.
(§2) Extracellular fluid: 140 mM NaCl, 5 mM CsCl, 2 mM CaCl2·2H2O, 1 mM MgCl2·6H2O, 5 mM HEPES, 10 mM D-Glucose, pH=7.4 (NaOH).
(§3) Intracellular fluid: 130 mM CsCl, 0.1 mM CaCl2·H2O, 2 mM MgCl2·6H2O, 1.1 mM EGTA, 5 mM Na2-ATP, 10 mM HEPES, pH=7.2 (CsOH).
The HEK293 cells line stably expressing GABAA (α1β2γ2) receptors was cultured in Dulbecco's Modified Eagle Medium (DMEM) supplemented with 10% fetal bovine serum, 800 μg/mL G418, 200 μg/mL Hygromycin B and 100 μg/mL Zeocin. Cells were grown in a humidified incubator at 37° C. with 5% carbon dioxide.
Before manual patch clamp test, the cells were detached using 0.25%-Trypsin-EDTA solution. Then 8×10^3 cells were plated onto coverslips, and cultured in a 24-well plate (final medium volume: 500 μL) and tested after 18 hours by patch clamp.
(§4) Glass pipette (BF 150-86-10, Sutter Instruments) was pulled using a micropipette puller (P97, Sutter Instruments). The glass pipette was manipulated using a micro-manipulator (MP285, Sutter Instruments) under the microscope (IX71, Olympus). After touching the cell, a slight suction was applied to achieve high seal resistance (GQ). Fast capacitance (in pF) compensation was made after achieving high seal, and the membrane was broken. Cell capacitance (in pF) compensation was made from whole-cell capacitance compensation after the whole cell mode was achieved. No leak subtraction was made.
(§5) The test and control solutions flowed into a recording chamber mounted on the stage of an inverted microscope via a gravity-fed solution delivery system. During the experiment, solutions were withdrawn from the recording chamber by vacuum aspiration. Each concentration was tested at multiple times. All tests were performed at room temperature.
(§6) Whole cell model recorded GABAA1 receptors current experimental protocol was indicated as follows: When sealing, cell was at a holding potential of −70 mV, with gap-free mode to record the peak current. The cell would be applied with 3 μM GABA to active current. After the test articles application for 30 s, each concentration of test articles was applied with 3 μM GABA followed by 2 minutes washout using extracellular solution. Finally, 100 μM GABA was used as a positive control. The data were collected by EPC-10 amplifier and stored in PatchMaster (HEKA) software.
(§7) The following criteria are used to determine whether the data is acceptable: • (1) Electrode resistance <5MΩ • (2) Seal resistance >1GΩ • (3) The start of access resistance <15 MΩ • (4) The end of access resistance <15 MΩ • (5) No obvious spontaneous current decay. • (6) No obvious current leakage when the membrane potential is-70 mv. 56.6 Data Analysis
In the detection of GABAA1, the currents of 3 μM GABA and different concentrations of test compounds were respectively normalized to the current of 100 μM GABA
[formula] and then the activation rate corresponding to each concentration was calculated.
[formula] and then the activation rate corresponding to each concentration was calculated. Means, Standard Deviation and Standard Error were calculated for each test group. EC50 value was calculated using nonlinear regression: Y=Bottom+(Top−Bottom)/(1+10^((Log EC50−X)×HillSlope))
To fit data to the concentration-response, EC50 was the concentration giving a half-maximum effect and Hillslope was the Hill coefficient. Curve-fitting and EC50 calculations were performed using Graphpad5.0 software.
Emax is defined as the ratio of the peak current generated on the GABAA1 receptor to the peak current generated only in 100 μmol of GABA and the ratio is multiplied by 100%. The peak current generated on the GABAA1 receptor is that the exemplary compounds act on the GABAA1 receptor together with 3 μmol GABA.

GABAA4 (α4β3δ) receptor = biological target: T2, GABAA4 (α4β3δ) receptor (Homo sapiens, UniProt P28472+P48169); assay: Patch-clamp electrophysiology, compound alone or with 10 nM GABA (Table 3); format: cell-based; conditions: for Emax: relative to peak current in GABA only
T2 construct: expressed in transfected cells; host or cells: HEK293 (transient transfection, plasmids 1:1:1)
Method: as §1, §2, §3
HEK293 cell line was cultured in DMEM containing 10% fetal bovine serum and 5% carbon dioxide at 37° C.
Cell passage: The old medium was removed, and the cells were washed once with PBS. Then 1 mL 0.25%-Trypsin-EDTA solution was added to digest cells. The culture dish was incubated at 37° C. in pre-warmed incubator for 0.5 minutes. As soon as cells were detached, about 5 mL 37° C. pre-warmed complete medium was added. Cell aggregates were dissociated by gentle pipetting. The cell suspension was transferred into a sterile centrifuge tube and then the cell suspension was be spun at approximately 1000 rpm for 5 minutes. The cells were amplified or maintained by seeding 2.5×10^5 cells in a 6 cm dish (final medium volume: 5 mL). For transfection, 8×10^3 cells were plated onto coverslips, and cultured in a 24-well plate (final medium volume: […]).
Transfection: Second day, the transfection of GABAA4 (α4, β3, δ plasmid ratio 1:1:1) was performed. The X-tremeGENE HP DAN Transfection Reagents kit were used. The ratio of the plasmid and transfection reagent was 1 μg: 2 μL. The amount of plasmid in the 24-well plate was 0.5 μg per well, and the transfection reagent was 1 μL. The following specific steps were taken for preparing the 12 wells: The 600 μL Opti-MEM was added to a sterile centrifuge tube along with 6 μg of plasmid and was allowed to mix well; Then, the 12 μL of transfection reagent was added, mixed well following 15 min incubation at room temperature. The transfection complex was then inoculated into the cell, 50 μL per well, and the transfection complex was lightly stirred and mixed.
This mixture was changed on the third day, and the patch-clamp was performed on the fourth day.
as §4, §5
as §6, with “GABAA4” for “GABAA1”, “10 nM” for “3 μM”, “10” for “100”
as §7, with “56.6 Data Analysis” left out

[1] = with 10 nM GABA, read-out: EC50 (with 10 nM GABA)
[2] = with 10 nM GABA, read-out: Emax (with 10 nM GABA)
[3] = without GABA, read-out: Emax (without GABA)

T1 sequence (P14867 28-456): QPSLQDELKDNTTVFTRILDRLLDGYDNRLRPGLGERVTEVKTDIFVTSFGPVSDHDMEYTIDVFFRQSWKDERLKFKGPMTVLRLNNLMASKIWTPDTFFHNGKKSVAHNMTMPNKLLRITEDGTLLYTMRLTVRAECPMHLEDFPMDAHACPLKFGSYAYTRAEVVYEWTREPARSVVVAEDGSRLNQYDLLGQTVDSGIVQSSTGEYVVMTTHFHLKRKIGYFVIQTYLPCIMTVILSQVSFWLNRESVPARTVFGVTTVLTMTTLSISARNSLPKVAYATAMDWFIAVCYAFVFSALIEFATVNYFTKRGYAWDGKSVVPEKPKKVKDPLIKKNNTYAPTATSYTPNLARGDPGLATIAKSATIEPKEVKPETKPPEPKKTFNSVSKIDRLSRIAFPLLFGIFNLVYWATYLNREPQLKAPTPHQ
T1 sequence (P47870 26-512): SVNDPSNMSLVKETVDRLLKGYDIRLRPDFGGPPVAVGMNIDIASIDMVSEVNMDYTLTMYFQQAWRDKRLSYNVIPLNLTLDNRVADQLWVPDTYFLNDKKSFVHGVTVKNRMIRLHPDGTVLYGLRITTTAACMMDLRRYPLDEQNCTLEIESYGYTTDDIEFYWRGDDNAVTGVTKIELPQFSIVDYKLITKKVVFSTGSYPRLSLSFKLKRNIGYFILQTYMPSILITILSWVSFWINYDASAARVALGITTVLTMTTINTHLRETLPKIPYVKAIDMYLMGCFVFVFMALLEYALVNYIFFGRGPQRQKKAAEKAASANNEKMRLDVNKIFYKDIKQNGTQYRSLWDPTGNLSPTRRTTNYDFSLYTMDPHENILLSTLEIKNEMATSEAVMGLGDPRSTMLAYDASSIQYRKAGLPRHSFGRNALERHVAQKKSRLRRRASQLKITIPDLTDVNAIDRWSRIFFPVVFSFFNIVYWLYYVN
T1 sequence (P18507 40-475 partner): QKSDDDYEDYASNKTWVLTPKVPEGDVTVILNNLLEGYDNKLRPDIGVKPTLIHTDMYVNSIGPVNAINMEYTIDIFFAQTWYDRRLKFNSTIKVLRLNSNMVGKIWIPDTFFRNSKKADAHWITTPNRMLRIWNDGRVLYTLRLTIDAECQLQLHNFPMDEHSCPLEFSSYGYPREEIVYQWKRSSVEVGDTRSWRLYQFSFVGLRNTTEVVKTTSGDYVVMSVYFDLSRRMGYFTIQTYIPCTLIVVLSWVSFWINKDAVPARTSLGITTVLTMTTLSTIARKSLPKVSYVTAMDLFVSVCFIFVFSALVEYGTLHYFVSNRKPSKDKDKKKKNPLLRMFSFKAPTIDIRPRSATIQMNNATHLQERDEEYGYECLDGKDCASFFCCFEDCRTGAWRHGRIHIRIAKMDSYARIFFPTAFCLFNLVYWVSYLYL
T2 sequence (P48169 36-554): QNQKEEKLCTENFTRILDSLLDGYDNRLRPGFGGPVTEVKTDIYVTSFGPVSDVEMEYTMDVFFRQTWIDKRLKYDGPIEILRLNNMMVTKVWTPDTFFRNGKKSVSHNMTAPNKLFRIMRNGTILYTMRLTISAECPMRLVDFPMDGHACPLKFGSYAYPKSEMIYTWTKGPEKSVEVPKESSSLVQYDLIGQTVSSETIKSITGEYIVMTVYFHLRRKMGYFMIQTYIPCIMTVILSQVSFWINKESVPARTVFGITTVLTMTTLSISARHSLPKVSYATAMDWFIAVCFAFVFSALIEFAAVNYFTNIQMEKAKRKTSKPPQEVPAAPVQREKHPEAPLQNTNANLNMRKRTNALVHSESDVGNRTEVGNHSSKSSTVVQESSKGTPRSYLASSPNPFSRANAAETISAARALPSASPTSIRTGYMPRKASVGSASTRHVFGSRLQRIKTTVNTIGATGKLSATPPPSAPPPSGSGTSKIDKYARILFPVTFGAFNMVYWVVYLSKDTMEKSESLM
T2 sequence (P28472 26-473): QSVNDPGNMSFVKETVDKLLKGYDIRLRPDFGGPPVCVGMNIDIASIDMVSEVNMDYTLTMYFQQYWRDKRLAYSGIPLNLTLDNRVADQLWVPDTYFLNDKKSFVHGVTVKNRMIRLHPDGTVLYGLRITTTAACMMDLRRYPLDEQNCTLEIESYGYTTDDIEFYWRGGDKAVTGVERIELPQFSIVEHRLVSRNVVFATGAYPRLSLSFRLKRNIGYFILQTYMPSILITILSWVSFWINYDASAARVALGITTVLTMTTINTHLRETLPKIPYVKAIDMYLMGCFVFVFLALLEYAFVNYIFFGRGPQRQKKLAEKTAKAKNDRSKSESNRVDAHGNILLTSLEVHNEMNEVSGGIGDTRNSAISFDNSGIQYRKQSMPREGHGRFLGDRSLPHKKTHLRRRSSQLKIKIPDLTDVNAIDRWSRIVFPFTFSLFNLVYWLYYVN
T2 sequence (O14764 25-452 partner): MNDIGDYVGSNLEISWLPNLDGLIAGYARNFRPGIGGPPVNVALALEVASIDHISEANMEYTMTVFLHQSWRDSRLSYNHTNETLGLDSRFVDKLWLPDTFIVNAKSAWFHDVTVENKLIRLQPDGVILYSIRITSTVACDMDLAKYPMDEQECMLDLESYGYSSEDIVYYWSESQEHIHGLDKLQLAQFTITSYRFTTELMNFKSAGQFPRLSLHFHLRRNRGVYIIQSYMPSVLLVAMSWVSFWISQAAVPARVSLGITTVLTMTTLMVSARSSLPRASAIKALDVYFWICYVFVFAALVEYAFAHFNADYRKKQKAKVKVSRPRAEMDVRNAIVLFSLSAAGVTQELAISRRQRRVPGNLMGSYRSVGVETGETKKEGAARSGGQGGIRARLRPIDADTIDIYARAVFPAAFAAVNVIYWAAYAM

| Compound | Emax at 0.1 µM (GABAA1 (α1β2γ2) receptor) | Emax at 1 µM (GABAA1 (α1β2γ2) receptor) | Emax (GABAA1 (α1β2γ2) receptor) | pEC50 (GABAA1 (α1β2γ2) receptor) | pEC50 (GABAA4 (α4β3δ) receptor; [1]) | Emax (GABAA4 (α4β3δ) receptor; [2]) | pEC50 (GABAA4 (α4β3δ) receptor; without GABA, read-out: EC50 (without GABA)) | Emax (GABAA4 (α4β3δ) receptor; [3]) | pEC50 (GABAA4 (α4β3δ) receptor; EC50 (with 10 nM GABA), with 10 nM GABA) |
| --- | --- | --- | --- | --- | --- | --- | --- | --- | --- |
| C[C@]12CC[C@@H](O)C[C@@H]1CC[C@@H]1[C@@H]2CC[C@]2(C)[C@@H](C(=O)Cn3ncnn3)CCC[C@@H]12 [KH004] | 20 to 40% | > 80% | 106% | 6.39 | 6.87 | 172% | 6.77 | 158% |  |
| C[C@@]1(O)CC[C@@]2(C)[C@@H](CC[C@@H]3[C@@H]2CC[C@]2(C)[C@@H](C(=O)Cn4ncnn4)CCC[C@@H]32)C1 [KH022] | 0 to 20% | 40 to 60% | 93.1% | 6.09 | 6.41 | 88.6% |  | 45.8% |  |
| C[C@@]1(O)CC[C@H]2[C@H](CC[C@@H]3[C@@H]2CC[C@]2(C)[C@@H](C(=O)Cn4cc(C#N)cn4)CC[C@@H]32)C1 [The control, reference compound] | 0 to 20% | 20 to 40% | 84.2% |  |  | 149% |  | 114% | 6.66 |

Reference: patent US12415830B2, “Steroid compound, and use thereof and preparation method therefor” (Chengdu Kanghong Pharmaceutical Co Ltd, priority 2019, dated 2025)
